These are literature values, as cited in patent US20220288054A1, “COMPOSITIONS AND METHODS TO TREAT NON-ALCOHOLIC FATTY LIVER DISEASES (NAFLD)” (Coherus Biosciences, Inc., priority 2019, published 2022).

For data set [1] the following is noted: monotherapy, STELLAR-4 phase 3.
The test system of data set [2] is mouse adipocytes.
The subject of data set [3] is diabetic rodents. Particulars: administered to diabetic rodents.

Take `Cc1cc(F)c(C(=O)Nc2cccc(-c3nncn3C(C)C)n2)cc1-n1cnc(C2CC2)c1` [selonsertib]: the primary endpoint result in data set [1] is on record as “failed to meet the primary endpoint”.
`CCCCOCCOc1ccc(-c2ccc3c(c2)/C=C(/C(=O)Nc2ccc([S@@+]([O-])Cc4cncn4CCC)cc2)CCCN3CC(C)C)cc1` [Cenicriviroc]: for the setting “289 patients, 1 year of therapy”, the safety profile entry was “excellent safety profile”. Also, under “289 patients, after 1 year of therapy”, the liver fibrosis improvement entry is listed as “consistently demonstrated liver fibrosis improvement”. Further, for the setting “adult patients with NASH and fibrosis, phase 2b”, the antifibrotic activity result is “provided antifibrotic activity”. The tolerability result (adult patients, oral, phase 2b) was “well-tolerated”.

B1: FGF21: amino acid sequence shown in FIG. 3 (SEQ ID NO: 3) (protein, listed as Homo sapiens)
chain: MDSDETGFEHSGLWVSVLAGLLLGACQAHPIPDSSPLLQFGGQVRQRYLYTDDAQQTEAHLEIREDGTVGGAADQSPESLLQLKALKPGVIQILGVKTSRFLCQRPDGALYGSLHFDPEACSFRELLLEDGYNVYQSEAHGLPLHLPGNKSPHRDPAPRGPARFLPLPGLPPALPEPPGILAPQPPDVGSSDPLSMVGPSQGRSPSYAS
Take B1: in data set [2], the glucose uptake entry is “activates glucose uptake”. Besides, in data set [3], the “blood glucose and triglyceride levels” value is “lower blood glucose and triglyceride levels”.
